We go through 23 molecules from patent US8067445B2, “N,N-disubstituted aminoalkylbiphenyl antagonists of prostaglandin D2 receptors” (Panmira Pharmaceuticals, LLC, priority 2008, dated 2011).

Some results are limits rather than exact numbers.

The assay addresses T1, human DP2 receptor (Homo sapiens, UniProt Q9Y5Y4).
T1 construct: expressed in transfected cells
T1 sequence (Q9Y5Y4 1-395): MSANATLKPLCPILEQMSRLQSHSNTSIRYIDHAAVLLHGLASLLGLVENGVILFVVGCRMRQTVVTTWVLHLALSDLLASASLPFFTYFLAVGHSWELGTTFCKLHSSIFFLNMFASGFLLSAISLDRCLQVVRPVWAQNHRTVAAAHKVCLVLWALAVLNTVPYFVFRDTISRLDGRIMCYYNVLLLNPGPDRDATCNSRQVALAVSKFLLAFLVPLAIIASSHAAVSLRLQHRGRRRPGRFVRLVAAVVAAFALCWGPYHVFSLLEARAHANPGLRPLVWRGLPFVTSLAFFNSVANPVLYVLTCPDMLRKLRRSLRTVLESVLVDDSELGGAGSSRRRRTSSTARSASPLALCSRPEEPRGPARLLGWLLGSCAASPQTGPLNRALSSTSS
The experiment in a line: DP2/CRTH2 radioligand binding assay ([3H]PGD2). Conditions: [3H]PGD2 binding, membranes of HEK293 cells expressing human DP2; read-out: hDP2. The protocol:
The ability of a compound to bind to the human DP2 receptor is assessed via a radioligand binding assay using [^3H]PGD2. HEK293 cells stably expressing recombinant human DP2 are resuspended in 10 mM Hepes, 7.4 containing 1 mM DTT, lysed and centrifuged at 75,000×g to pellet the membranes. The membranes are resuspended in 10 mM Hepes, 7.4 containing 1 mM DTT and 10% glycerol to approximately 5 mg protein/ml. Membranes (2-10 μg protein/well) are incubated in 96-well plates with 1 nM [^3H]PGD2 and test compound in Assay Buffer (50 mM Hepes, 10 mM MnCl2, 1 mM EDTA, plus or minus 0.2% human serum albumin, pH 7.4) for 60 minutes at room temperature. The reactions are terminated by rapid filtration through Whatman GF/C glass fibre filter plates. The filter plates were pre-soaked in 0.33% polyethylenimine for 30 minutes at room temperature then washed in Wash Buffer (50 mM Hepes, 0.5 M NaCl pH 7.4) prior to harvesting. After harvesting, the filter plates are washed 3 times with 1 ml cold Wash Buffer then dried. Scintillant is then added to the plates and the radioactivity retained on the filters is determined on a Packard TopCount (Perkin Elmer). Specific binding is determined as total radioactive binding minus non-specific binding in the presence of 10 μM PGD2. IC50s were determined using GraphPad prism analysis of drug titration curves.
`CCN(Cc1cc(C(F)(F)F)ccc1-c1cc(C(C)C(=O)O)ccc1OC)C(=O)NC1CC1` (centres unmarked) [Compound 1-243, 2-[2′-(3-Cyclopropyl-1-ethyl-ureidomethyl)-6-methoxy-4′-trifluoromethyl-biphenyl-3-yl]-propionic acid]: the IC50 is under 300 nM. In the case of `CCN(Cc1cc(C(F)(F)F)ccc1-c1cc([C@@H](C)C(=O)O)cc(C(F)(F)F)c1)C(=O)NCc1ccccc1` [Compound 1-239, (R)-2-[2′-(3-Benzyl-1-ethyl-ureidomethyl)-5,4′-bis-trifluoromethyl-biphenyl-3-yl]-propionic acid] it was under 300 nM. Take `CCN(Cc1cc(C(F)(F)F)ccc1-c1cc([C@H](C)C(=O)O)cc(C(F)(F)F)c1)C(=O)C1CC1` [Compound 1-238, (S)-2-{2′-[(Cyclopropanecarbonyl-ethyl-amino)-methyl]-5,4′-bis-trifluoromethyl-biphenyl-3-yl}-propionic acid]: the IC50 was under 300 nM. Under `CCN(Cc1cc(C(F)(F)F)ccc1-c1cc(CC(=O)O)ccc1OC)C(=O)c1ccccc1` [Compound 1-80, {2′-[(Benzoyl-ethyl-amino)-methyl]-6-methoxy-4′-trifluoromethyl-biphenyl-3-yl}-acetic acid] stands under 300 nM; under `CCN(Cc1ccc(OC)cc1-c1cc(Cl)cc(CC(=O)O)c1)C(=O)NCc1ccccc1` [Compound 1-219, [2′-(3-Benzyl-1-ethyl-ureidomethyl)-5-chloro-5′-methoxy-biphenyl-3-yl]-acetic acid], under 300 nM; under `CCN(Cc1cc(C(F)(F)F)ccc1-c1cc(C(C)C(=O)O)cc(C(F)(F)F)c1)C(=O)C1CC1` (centres unmarked) [Compound 1-214, 2-{2′-[(Cyclopropanecarbonyl-ethyl-amino)-methyl]-5,4′-bis-trifluoromethyl-biphenyl-3-yl}-propionic acid], under 300 nM.

As for `CCN(Cc1ccc(OC)cc1-c1cc(CC(=O)O)ccc1OC)C(=O)C1CC1` [Compound 1-196, {2′-[(Cyclopropanecarbonyl-ethyl-amino)-methyl]-6,5′-dimethoxy-biphenyl-3-yl}-acetic acid], the IC50 was under 300 nM.

`CCN(Cc1ccc(OC)cc1-c1cc(Cl)cc(CC(=O)O)c1)C(=O)C1CC1` [Compound 1-218, {5-Chloro-2′-[(cyclopropanecarbonyl-ethyl-amino)-methyl]-5′-methoxy-biphenyl-3-yl}-acetic acid]: the IC50 is under 300 nM.

For the molecule `CCN(Cc1cc(C(F)(F)F)ccc1-c1cc(CC(=O)O)ccc1OC)C(=O)NCc1ccncc1` [Compound 1-199, [2′-(1-Ethyl-3-pyridin-4-ylmethyl-ureidomethyl)-6-methoxy-4′-trifluoromethyl-biphenyl-3-yl]-acetic acid], the IC50 was under 300 nM. Under `CCN(Cc1cc(SC)ccc1-c1cc(Cl)cc(CC(=O)O)c1)C(=O)C1CC1` [Compound 1-242, {5-Chloro-2′-[(cyclopropanecarbonyl-ethyl-amino)-methyl]-4′-methylsulfanyl-biphenyl-3-yl}-acetic acid] stands under 300 nM. Under `CCN(Cc1cc(C(F)(F)F)ccc1-c1cc(CC(=O)O)cc(C(F)(F)F)c1)C(=O)NCc1ccc(Cl)cc1` [Compound 1-193, {2′-[3-(4-Chloro-benzyl)-1-ethyl-ureidomethyl]-5,4′-bis-trifluoromethyl-biphenyl-3-yl}-acetic acid] stands under 300 nM.

In the case of `CCN(Cc1cc(C(F)(F)F)ccc1-c1cc(Cl)cc(C(C)C(=O)O)c1)C(=O)NCc1ccccc1` (centres unmarked) [Compound 1-223, 2-[2′-(3-Benzyl-1-ethyl-ureidomethyl)-5-chloro-4′-trifluoromethyl-biphenyl-3-yl]-propionic acid], the IC50 is under 300 nM. In the case of `CCN(Cc1ccc(OC)cc1-c1cc(CC(=O)O)ccc1OC)C(=O)OCc1ccc(F)cc1` [Compound 1-194, (2′-{[Ethyl-(4-fluoro-benzyloxycarbonyl)-amino]-methyl}-6,5′-dimethoxy-biphenyl-3-yl)-acetic acid], the IC50 was under 300 nM. With `CCN(Cc1cc(C(F)(F)F)ccc1-c1cc(Cl)cc(CC(=O)O)c1)C(=O)c1ccccc1` [Compound 1-203, {2′-[(Benzoyl-ethyl-amino)-methyl]-5-chloro-4′-trifluoromethyl-biphenyl-3-yl}-acetic acid], the IC50 was under 300 nM. Under `CCN(Cc1cc(C(F)(F)F)ccc1-c1cc(Cl)cc(C(C)C(=O)O)c1)C(=O)C1CC1` (centres unmarked) [Compound 1-212, 2-{5-Chloro-2′-[(cyclopropanecarbonyl-ethyl-amino)-methyl]-4′-trifluoromethyl-biphenyl-3-yl}-propionic acid] stands under 300 nM. Under `CCN(Cc1cc(C(F)(F)F)ccc1-c1cc(CC(=O)O)ccc1OC)C(=O)NCc1ccc(Cl)nc1` [Compound 1-200, {2′-[3-(6-Chloro-pyridin-3-ylmethyl)-1-ethyl-ureidomethyl]-6-methoxy-4′-trifluoromethyl-biphenyl-3-yl}-acetic acid] stands under 300 nM; under `CCN(Cc1ccc(OC)cc1-c1cc(Cl)cc(CC(=O)O)c1)C(=O)COc1ccc(Cl)cc1` [Compound 1-221, [5-Chloro-2′-({[2-(4-chloro-phenoxy)-acetyl]-ethyl-amino}-methyl)-5′-methoxy-biphenyl-3-yl]-acetic acid], under 300 nM. Under `CCN(Cc1cc(C(F)(F)F)ccc1-c1cc(Cl)cc(CC(=O)O)c1)C(=O)OCc1ccc(Cl)cc1` [Compound 1-188, (5-Chloro-2′-{[(4-chloro-benzyloxycarbonyl)-ethyl-amino]-methyl}-4′-trifluoromethyl-biphenyl-3-yl)-acetic acid] stands under 300 nM; under `CCN(Cc1cc(C(F)(F)F)ccc1-c1cc([C@H](C)C(=O)N[C@H](C)Cc2ccccc2)cc(C(F)(F)F)c1)C(=O)NCc1ccccc1` [Compound 2-11, (S)-2-[2′-(3-Benzyl-1-ethyl-ureidomethyl)-5,4′-bis-trifluoromethyl-biphenyl-3-yl]-N—((R)-1-methyl-2-phenyl-ethyl)-propionamide], under 300 nM. As to `CCN(Cc1cc(-c2ccc3ncccc3c2)ccc1-c1cc(CC(=O)O)ccc1OC)C(=O)C1CC1` [Compound 1-230, {2′-[(Cyclopropanecarbonyl-ethyl-amino)-methyl]-6-methoxy-4′-quinolin-6-yl-biphenyl-3-yl}-acetic acid], the IC50 was under 300 nM. `CCN(Cc1cc(C(F)(F)F)ccc1-c1cc(C(F)(F)F)cc(C(C)(C)C(=O)O)c1)C(=O)C1CC1` [Compound 1-236, 2-{2′-[(Cyclopropanecarbonyl-ethyl-amino)-methyl]-5,4′-bis-trifluoromethyl-biphenyl-3-yl}-2-methyl-propionic acid]: the IC50 is 300 to 1000 nM.

Consider `CCN(Cc1cc(C(F)(F)F)ccc1-c1cc([C@H](C)C(=O)N2C(=O)O[C@@H](c3ccccc3)[C@H]2C)cc(C(F)(F)F)c1)C(=O)C1CC1` [Compound 2-16, Cyclopropanecarboxylic acid ethyl-{3′-[(S)-1-methyl-2((4R,5S)-4-methyl-2-oxo-5-phenyl-oxazolidin-3-yl)-2-oxo-ethyl]-4,5′-bis-trifluoromethyl-biphenyl-2-ylmethyl}-amide], for which the IC50 lay in the range of 1000 to 30000 nM. In the case of `CCN(Cc1cc(-c2ncc(OC)cn2)ccc1-c1cc(CC(=O)O)ccc1OC)C(=O)C1CC1` [Compound 1-250, [2′-[(Cyclopropanecarbonyl-ethyl-amino)-methyl]-6-methoxy-4′-(5-methoxy-pyrimidin-2-yl)-biphenyl-3-yl]-acetic acid] it was under 300 nM.
